In brackets after ≈: the same amount, converted by molar mass.
Key:
MTT viability, MEWO = type: cell-based, human; conditions: human, MEWO malignant melanoma cells, 1000 µM (IC50 exceeded 1000 µM), read-out: viability ± standard deviation at 1000 µM
How it was run: (§1)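 Viability is given as the optical density ratio of treated to control wells after 24 h compound treatment at 37 °C. Formazan from a 4 h MTT incubation is solubilised with SDS/DMF and measured at 570 nm.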

MTT viability, HT29 = type: cell-based, human; conditions: human, HT29 colorectal adenocarcinoma cells, 1000 µM (IC50 exceeded 1000 µM), read-out: viability ± standard deviation at 1000 µM
How it was run: as §1

MTT viability, HL-60 = type: cell-based, human; conditions: human, HL-60 promyelocytic leukaemia cells, HL-60, MTT, 1000 µM (IC50 exceeded 1000 µM), read-out: viability ± standard deviation at 1000 µM
How it was run: as §1

MTT viability, HFIG = type: cell-based, human; conditions: human, HFIG (HFIB-G) gingival fibroblasts, 1000 µM (IC50 exceeded 1000 µM), read-out: viability ± standard deviation at 1000 µM
How it was run: as §1

MTT viability, HaCaT = type: cell-based, human; conditions: human, HaCaT keratinocytes, 1000 µM (IC50 exceeded 1000 µM), read-out: viability ± standard deviation at 1000 µM
How it was run: as §1

MTT viability, IEC6 = type: cell-based; conditions: rat, IEC-6 small intestine epithelial cells, 1000 µM (IC50 exceeded 1000 µM), read-out: viability ± standard deviation at 1000 µM
How it was run: as §1

[1] = system: Staphylococcus aureus ATCC 43300; parameters: method as in doi:10.1002/ffj.3238; conditions: data presented by the authors before; cited from earlier work
[2] = system: Enterococcus faecalis ATCC 51299; parameters: method as in doi:10.1002/ffj.3238; conditions: data presented by the authors before; cited from earlier work
[3] = system: Enterococcus faecium ATCC 35667; parameters: method as in doi:10.1002/ffj.3238; conditions: data presented by the authors before; cited from earlier work
[4] = system: Escherichia coli ATCC 25922; parameters: method as in doi:10.1002/ffj.3238; conditions: data presented by the authors before; cited from earlier work
[5] = system: Klebsiella pneumoniae ATCC 700603; parameters: method as in doi:10.1002/ffj.3238; conditions: data presented by the authors before; cited from earlier work
[6] = system: Acinetobacter baumannii ATCC 19606; parameters: method as in doi:10.1002/ffj.3238; conditions: data presented by the authors before; cited from earlier work
[7] = system: Staphylococcus aureus ATCC 43300; assay: Micro-dilution broth MIC, Staphylococcus aureus; type: cell-based; conditions: ATCC43300, 24 h, 37 °C, read-out: Minimum Inhibitory Concentrations MIC
Method: (§2) The standard strains, Gram-positive: Staphylococcus aureus ATCC […], Enterococcus faecalis Van B ATCC 51299 and Enterococcus faecium VA sensitive ATCC 35667, and Gram-negative: Escherichia coli ATCC 25922, Klebsiella pneumoniae ATCC 700603 and Acinetobacter baumannii ATCC 19606, came from a collection of the Environmental Biology Department, Medical University of Łódź. The standard strains were cultivated in Columbia Agar Medium and incubated at 37 °C for 24 h in aerobic conditions.
(§3) The antibacterial activity of the racemates and E/Z-mixtures was investigated using the micro‑dilution broth method. The compounds were diluted in ethanol. This stock solution was mixed with 100 µL of Mueller-Hinton broth to obtain concentrations from 10 µg/mL to 80 µg/mL. The mixtures were then transferred to 96-well microtiter plates. The microbial suspension was standardised to a cell density of 1.5 × 10^8 CFU, which was equal to an optical density of 0.5 on the Mc Farland scale by a bio-Merieux densitometer; one well was filled with broth only to act as a control for strain growth.

[8] = system: Enterococcus faecalis ATCC 51299; assay: Micro-dilution broth MIC, Enterococcus faecalis; type: cell-based; conditions: ATCC51299, 24 h, 37 °C, read-out: Minimum Inhibitory Concentrations MIC
Method: as §2, §3

[9] = system: Enterococcus faecium ATCC 35667; assay: Micro-dilution broth MIC, Enterococcus faecium; type: cell-based; conditions: ATCC35667, 24 h, 37 °C, read-out: Minimum Inhibitory Concentrations MIC
Method: as §2, §3

[10] = system: Escherichia coli ATCC 25922; assay: Micro-dilution broth MIC, Escherichia coli; type: cell-based; conditions: ATCC25922, 24 h, 37 °C, read-out: Minimum Inhibitory Concentrations MIC
Method: as §2, §3

[11] = system: Klebsiella pneumoniae ATCC 700603; assay: Micro-dilution broth MIC, Klebsiella pneumoniae; type: cell-based; conditions: ATCC700603, 24 h, 37 °C, read-out: Minimum Inhibitory Concentrations MIC
Method: as §2, §3

[12] = system: Acinetobacter baumannii ATCC 19606; assay: Micro-dilution broth MIC, Acinetobacter baumannii; type: cell-based; conditions: ATCC19606, 24 h, 37 °C, read-out: Minimum Inhibitory Concentrations MIC
Method: as §2, §3

Malignant Melanoma MEWO = assay: MTT viability, MEWO; type: cell-based, human; conditions: Homo sapiens, 24 h, range 10–1000 µM, read-out: half maximal inhibitory concentration (IC50), interpolated
How it was run: as §1

[13] = system: Colorectal Adenocarcinoma HT29; assay: MTT viability, HT29; type: cell-based, human; conditions: Homo sapiens, HT-29, 24 h, range 10–1000 µM, read-out: half maximal inhibitory concentration (IC50), interpolated
How it was run: as §1

[14] = system: Promyelocytic Leukaemia HL-60; assay: MTT viability, HL-60; type: cell-based, human; conditions: Homo sapiens, HL-60, 24 h, HL-60, MTT, range 10–1000 µM, read-out: half maximal inhibitory concentration (IC50), interpolated
How it was run: as §1

Fibroblasts HFIG = assay: MTT viability, HFIG; type: cell-based, human; conditions: Homo sapiens, Fibroblast, 24 h, range 10–1000 µM, read-out: half maximal inhibitory concentration (IC50), interpolated
How it was run: as §1

Keratinocytes HaCaT = assay: MTT viability, HaCaT; type: cell-based, human; conditions: Homo sapiens, 24 h, range 10–1000 µM, read-out: half maximal inhibitory concentration (IC50), interpolated
How it was run: as §1

[15] = system: Staphylococcus aureus FDA209P; parameters: method as in PMID 19078849; conditions: 1 × 10^5 CFU, 48 h with shaking, turbidimetric; cited from earlier work
[16] = system: Mycobacterium smegmatis mc^2 155 ATCC 700084; parameters: method as in PMID 21042264; conditions: micro-dilution, NCCLS guidelines; cited from earlier work
[17] = system: non-small cell lung cancer cells H460; parameters: method as in PMID 12753732; conditions: cited from earlier work
[18] = system: non-small cell lung cancer cells A549; parameters: method as in PMID 12753732; conditions: cited from earlier work
[19] = system: human melanoma MDA/MB‑435 cell lines; parameters: method as in PMID 19084293; conditions: cited from earlier work
[20] = system: colon carcinoma HCT-8 cells; parameters: method as in PMID 19084293; conditions: cited from earlier work

Compound | viability at 24 h, 1000 µM (MTT viability, MEWO) [%] | viability at 24 h, 1000 µM (MTT viability, HT29) [%] | viability at 24 h, 1000 µM (MTT viability, HL-60) [%] | viability at 24 h, 1000 µM (MTT viability, HFIG) [%] | viability at 24 h, 1000 µM (MTT viability, HaCaT) [%] | viability at 24 h, 1000 µM (MTT viability, IEC6) [%] | Minimum Inhibitory Concentrations MIC [1] [µg/mL] | Minimum Inhibitory Concentrations MIC [2] [µg/mL] | Minimum Inhibitory Concentrations MIC [3] [µg/mL] | Minimum Inhibitory Concentrations MIC [4] [µg/mL] | Minimum Inhibitory Concentrations MIC [5] [µg/mL] | Minimum Inhibitory Concentrations MIC [6] [µg/mL] | other results
CC(=O)CCC=C(C)C(C)CCC=C(C)C (stereo not drawn) [Compound 6] | 102 | 102 | 67 | 83 | 118 | 95 | 26 | 18 | 16 | 14 | 14 | 12 | –
CC(=O)CCC=CC(C)CCC=C(C)C (stereo not drawn) [Compound 7] | 99 | 98 | 67 | 92 | 101 | 82 | 26 | 16 | 18 | 16 | 16 | 14 | –
CC(=O)CCC=C(C)C(C)CCCC(C)C (stereo not drawn) [Compound 8] | 94 | 111 | 72 | 81 | 90 | 97 | 38 | 26 | 28 | 18 | 18 | 22 | –
CC(=O)CCC=C(C)CC(C)CCC=C(C)C (stereo not drawn) [Compound 9] | 83 | 107 | 69 | 85 | 89 | 76 | 28 | 18 | 14 | 28 | 18 | 16 | –
CC(=O)CCC=C(C)CCC(C)CCC=C(C)C (stereo not drawn) [Compound 10] | 93 | 103 | 62 | 98 | 112 | 78 | 46 | 26 | 18 | 32 | 18 | 16 | –
CC(=O)CCC=C(C)C(C)CC(C)CCC=C(C)C (stereo not drawn) [Compound 11] | 112 | 92 | 59 | 102 | 100 | 81 | 26 | 22 | 18 | 28 | 28 | 14 | –
CC(C)=CCC/C(C)=C/CC/C(C)=C/CO [Farnesol (4), farnesol, reference compound] | – | – | – | – | – | 58 | – | – | – | – | – | – | MIC [7]: 26 µg/mL (≈ 117 µM); MIC [8]: 18 µg/mL (≈ 80.9 µM); MIC [9]: 16 µg/mL (≈ 72 µM); MIC [10]: 28 µg/mL (≈ 126 µM); MIC [11]: 16 µg/mL (≈ 72 µM); MIC [12]: 18 µg/mL (≈ 80.9 µM); IC50 (Malignant Melanoma MEWO): 378 µM; IC50 [13]: 930 µM; IC50 [14]: 54 µM; IC50 (Fibroblasts HFIG): 350 µM; IC50 (Keratinocytes HaCaT): 489 µM; concentration at which active [15]: ≥ 10 µg/mL; MIC [16]: 64 µg/mL (≈ 288 µM); IC50 [17]: ~4.5 µM; IC50 [18]: ~4.5 µM
C=CC(C)(O)CC/C=C(\C)CCC=C(C)C (stereo not drawn) [Nerolidol (2), nerolidol, reference compound] | 99 | 103 | – | 75 | 102 ± 5 | 76 | 48 | 38 | 32 | 46 | 16 | 26 | IC50 [14]: ~135 µM; toxicity [19]: no toxicity; toxicity [20]: no toxicity
